Laboratory results reported in US20110039721A1, “METHOD FOR PREDICTION ABOUT CARCINOGENICITY OF SUBSTANCE IN RODENT” (Chemicals Evaluation and Research Institute, priority 2007, published 2011).
Where two headings read alike, the source gives them in different places.

Columns and labels:
[1] = system: rodent; conditions: cited from earlier work
[2] = system: liver; conditions: cited from earlier work
[3] = system: mRNA expressed from the genes (A) to (D) in rat liver; experiment: Behavior of genes (mRNA expression level, oligo-DNA microarray) in rat liver after 28-day oral administration; type: in vivo; conditions: for Behavior of gene caused by administration of chemical substance, Gene No. 4846 / Behavior of gene caused by administration of chemical substance, Gene No. 2026 / Behavior of gene caused by administration of chemical substance, Gene No. 4218 / Behavior of gene caused by administration of chemical substance, Gene No. 6182 / Behavior of gene caused by administration of chemical substance, Gene No. 5600: gene group (A); for Behavior of gene caused by administration of chemical substance, Gene No. 4846: Unigene No. Rn.144554; for Behavior of gene caused by administration of chemical substance, Gene No. 2026 / Behavior of gene caused by administration of chemical substance, Gene No. 4218: Unigene No. Rn.167075; for Behavior of gene caused by administration of chemical substance, Gene No. 6182: Unigene No. Rn.5834; for Behavior of gene caused by administration of chemical substance, Gene No. 5600: Unigene No. Rn.9836; for Behavior of gene caused by administration of chemical substance, Gene No. 1494 / Behavior of gene caused by administration of chemical substance, Gene No. 2045 / Behavior of gene caused by administration of chemical substance, Gene No. 2203: gene group (B); for Behavior of gene caused by administration of chemical substance, Gene No. 1494: Unigene No. Rn.1430; for Behavior of gene caused by administration of chemical substance, Gene No. 2045: Unigene No. Rn.19329; for Behavior of gene caused by administration of chemical substance, Gene No. 2203: Unigene No. Rn.21240; for Behavior of gene caused by administration of chemical substance, Gene No. 533 / Behavior of gene caused by administration of chemical substance, Gene No. 725 / Behavior of gene caused by administration of chemical substance, Gene No. 1163 / Behavior of gene caused by administration of chemical substance, Gene No. 4973 / Behavior of gene caused by administration of chemical substance, Gene No. 4095 / Behavior of gene caused by administration of chemical substance, Gene No. 1334 / Behavior of gene caused by administration of chemical substance, Gene No. 6620 / Behavior of gene caused by administration of chemical substance, Gene No. 6303 / Behavior of gene caused by administration of chemical substance, Gene No. 5878 / Behavior of gene caused by administration of chemical substance, Gene No. 1131 / Behavior of gene caused by administration of chemical substance, Gene No. 1562 / Behavior of gene caused by administration of chemical substance, Gene No. 1741 / Behavior of gene caused by administration of chemical substance, Gene No. 893 / Behavior of gene caused by administration of chemical substance, Gene No. 6026 / Behavior of gene caused by administration of chemical substance, Gene No. 154 / Behavior of gene caused by administration of chemical substance, Gene No. 1993 / Behavior of gene caused by administration of chemical substance, Gene No. 813 / Behavior of gene caused by administration of chemical substance, Gene No. 2494 / Behavior of gene caused by administration of chemical substance, Gene No. 2546 / Behavior of gene caused by administration of chemical substance, Gene No. 3776 / Behavior of gene caused by administration of chemical substance, Gene No. 3929 / Behavior of gene caused by administration of chemical substance, Gene No. 1119 / Behavior of gene caused by administration of chemical substance, Gene No. 6742 / Behavior of gene caused by administration of chemical substance, Gene No. 5634: gene group (C); for Behavior of gene caused by administration of chemical substance, Gene No. 533: Unigene No. Rn.106184; for Behavior of gene caused by administration of chemical substance, Gene No. 725: Unigene No. Rn.108075; for Behavior of gene caused by administration of chemical substance, Gene No. 1163: Unigene No. Rn.11766; for Behavior of gene caused by administration of chemical substance, Gene No. 4973: Unigene No. Rn.118529; for Behavior of gene caused by administration of chemical substance, Gene No. 4095: Unigene No. Rn.119024; for Behavior of gene caused by administration of chemical substance, Gene No. 1334 / Behavior of gene caused by administration of chemical substance, Gene No. 6620: Unigene No. Rn.120914; for Behavior of gene caused by administration of chemical substance, Gene No. 6303: Unigene No. Rn.123063; for Behavior of gene caused by administration of chemical substance, Gene No. 5878: Unigene No. Rn.143213; for Behavior of gene caused by administration of chemical substance, Gene No. 1131: Unigene No. Rn.144946; for Behavior of gene caused by administration of chemical substance, Gene No. 1562: Unigene No. Rn.14744; for Behavior of gene caused by administration of chemical substance, Gene No. 1741: Unigene No. Rn.1647; for Behavior of gene caused by administration of chemical substance, Gene No. 893: Unigene No. Rn.164817; for Behavior of gene caused by administration of chemical substance, Gene No. 6026: Unigene No. Rn.167685; for Behavior of gene caused by administration of chemical substance, Gene No. 154: Unigene No. Rn.185941; for Behavior of gene caused by administration of chemical substance, Gene No. 1993: Unigene No. Rn.18728; for Behavior of gene caused by administration of chemical substance, Gene No. 813: Unigene No. Rn.201760; for Behavior of gene caused by administration of chemical substance, Gene No. 2494: Unigene No. Rn.23969; for Behavior of gene caused by administration of chemical substance, Gene No. 2546: Unigene No. Rn.24561; for Behavior of gene caused by administration of chemical substance, Gene No. 3776: Unigene No. Rn.43232; for Behavior of gene caused by administration of chemical substance, Gene No. 3929: Unigene No. Rn.4620; for Behavior of gene caused by administration of chemical substance, Gene No. 1119: Unigene No. Rn.9757; for Behavior of gene caused by administration of chemical substance, Gene No. 6742: Unigene No. Rn.9779; for Behavior of gene caused by administration of chemical substance, Gene No. 5634: Unigene No. Rn.9862; for Behavior of gene caused by administration of chemical substance, Gene No. 5726: gene group (D), Unigene No. Rn.9939
Outline: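 Rat liver RNA after 28 days of daily gavage dosing (male F344, 5 weeks old, four per group). A change reaching 1.5-fold, or 1/1.5, against solvent control scores as significant; opposite direction versus another carcinogen scores as not significant.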

## ClC1=C(Cl)[C@]2(Cl)[C@@H]3[C@@H]4C[C@@H]([C@H]5O[C@@H]45)[C@@H]3[C@@]1(Cl)C2(Cl)Cl [TS017, Dieldrin]
[1]; in vivo
  Carcinogenicity: C+
[2]; in vivo
  Liver carcinogenicity: Cr−
[3]
  Behavior of gene caused by administration of chemical substance, Gene No. 4846: −
  Behavior of gene caused by administration of chemical substance, Gene No. 2026: −
  Behavior of gene caused by administration of chemical substance, Gene No. 4218: −
  Behavior of gene caused by administration of chemical substance, Gene No. 6182: +
  Behavior of gene caused by administration of chemical substance, Gene No. 5600: −
  Behavior of gene caused by administration of chemical substance, Gene No. 1494: +
  Behavior of gene caused by administration of chemical substance, Gene No. 2045: +
  Behavior of gene caused by administration of chemical substance, Gene No. 2203: +
  Behavior of gene caused by administration of chemical substance, Gene No. 533: +
  Behavior of gene caused by administration of chemical substance, Gene No. 725: −
  Behavior of gene caused by administration of chemical substance, Gene No. 1163: −
  Behavior of gene caused by administration of chemical substance, Gene No. 4973: −
  Behavior of gene caused by administration of chemical substance, Gene No. 4095: −
  Behavior of gene caused by administration of chemical substance, Gene No. 1334: −
  Behavior of gene caused by administration of chemical substance, Gene No. 6620: −
  Behavior of gene caused by administration of chemical substance, Gene No. 6303: −
  Behavior of gene caused by administration of chemical substance, Gene No. 5878: −
  Behavior of gene caused by administration of chemical substance, Gene No. 1131: −
  Behavior of gene caused by administration of chemical substance, Gene No. 1562: −
  Behavior of gene caused by administration of chemical substance, Gene No. 1741: −
  Behavior of gene caused by administration of chemical substance, Gene No. 893: −
  Behavior of gene caused by administration of chemical substance, Gene No. 6026: −
  Behavior of gene caused by administration of chemical substance, Gene No. 154: −
  Behavior of gene caused by administration of chemical substance, Gene No. 1993: −
  Behavior of gene caused by administration of chemical substance, Gene No. 813: −
  Behavior of gene caused by administration of chemical substance, Gene No. 2494: −
  Behavior of gene caused by administration of chemical substance, Gene No. 2546: −
  Behavior of gene caused by administration of chemical substance, Gene No. 3776: −
  Behavior of gene caused by administration of chemical substance, Gene No. 3929: −
  Behavior of gene caused by administration of chemical substance, Gene No. 1119: −
  Behavior of gene caused by administration of chemical substance, Gene No. 6742: −
  Behavior of gene caused by administration of chemical substance, Gene No. 5634: −
  Behavior of gene caused by administration of chemical substance, Gene No. 5726: −

## CCCCC(CC)COC(=O)CCCCC(=O)OCC(CC)CCCC (stereo not shown) [TS018, Di(2-ethylhexyl)adipate]
[1]; classification of the substance (C+/C−)
  Carcinogenicity: C+
[2]; classification of the substance (Cr+/Cr−)
  Liver carcinogenicity: Cr−
[3]; mRNA vs vehicle control group
  Behavior of gene caused by administration of chemical substance, Gene No. 4846: −
  Behavior of gene caused by administration of chemical substance, Gene No. 2026: −
  Behavior of gene caused by administration of chemical substance, Gene No. 4218: −
  Behavior of gene caused by administration of chemical substance, Gene No. 6182: +
  Behavior of gene caused by administration of chemical substance, Gene No. 5600: −
  Behavior of gene caused by administration of chemical substance, Gene No. 1494: +
  Behavior of gene caused by administration of chemical substance, Gene No. 2045: +
  Behavior of gene caused by administration of chemical substance, Gene No. 2203: +
  Behavior of gene caused by administration of chemical substance, Gene No. 533: +
  Behavior of gene caused by administration of chemical substance, Gene No. 725: −
  Behavior of gene caused by administration of chemical substance, Gene No. 1163: −
  Behavior of gene caused by administration of chemical substance, Gene No. 4973: +
  Behavior of gene caused by administration of chemical substance, Gene No. 4095: +
  Behavior of gene caused by administration of chemical substance, Gene No. 1334: −
  Behavior of gene caused by administration of chemical substance, Gene No. 6620: −
  Behavior of gene caused by administration of chemical substance, Gene No. 6303: −
  Behavior of gene caused by administration of chemical substance, Gene No. 5878: −
  Behavior of gene caused by administration of chemical substance, Gene No. 1131: −
  Behavior of gene caused by administration of chemical substance, Gene No. 1562: −
  Behavior of gene caused by administration of chemical substance, Gene No. 1741: −
  Behavior of gene caused by administration of chemical substance, Gene No. 893: −
  Behavior of gene caused by administration of chemical substance, Gene No. 6026: −
  Behavior of gene caused by administration of chemical substance, Gene No. 154: −
  Behavior of gene caused by administration of chemical substance, Gene No. 1993: −
  Behavior of gene caused by administration of chemical substance, Gene No. 813: −
  Behavior of gene caused by administration of chemical substance, Gene No. 2494: −
  Behavior of gene caused by administration of chemical substance, Gene No. 2546: −
  Behavior of gene caused by administration of chemical substance, Gene No. 3776: −
  Behavior of gene caused by administration of chemical substance, Gene No. 3929: −
  Behavior of gene caused by administration of chemical substance, Gene No. 1119: −
  Behavior of gene caused by administration of chemical substance, Gene No. 6742: −
  Behavior of gene caused by administration of chemical substance, Gene No. 5634: −
  Behavior of gene caused by administration of chemical substance, Gene No. 5726: −
